In one assay the target is D(2) dopamine receptor (Homo sapiens, UniProt P14416). Briefly: Displacement of [3H]N-methylspiperone from human dopamine D2 receptor by liquid scintillation counting.
The target in another assay is D(3) dopamine receptor (Homo sapiens, UniProt P35462). The assay is described as follows: Displacement of [3H]N-methylspiperone from human dopamine D3 receptor by liquid scintillation counting.
Another assay concerns the target T1, D(4) dopamine receptor (Rattus norvegicus, UniProt P30729).
T1 sequence (P30729 whole entry): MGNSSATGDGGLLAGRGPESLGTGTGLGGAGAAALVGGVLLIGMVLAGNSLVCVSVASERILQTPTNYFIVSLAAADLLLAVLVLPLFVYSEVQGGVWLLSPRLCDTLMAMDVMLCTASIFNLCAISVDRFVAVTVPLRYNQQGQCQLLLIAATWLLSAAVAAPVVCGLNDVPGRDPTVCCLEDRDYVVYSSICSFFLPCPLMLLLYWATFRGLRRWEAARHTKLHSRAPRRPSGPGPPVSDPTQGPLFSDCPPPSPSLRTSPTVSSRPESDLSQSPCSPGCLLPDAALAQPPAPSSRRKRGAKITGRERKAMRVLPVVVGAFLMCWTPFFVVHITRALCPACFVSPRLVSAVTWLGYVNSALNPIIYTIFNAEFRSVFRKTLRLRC
The assay is described as follows: Displacement of [3H]N-methylspiperone from rat dopamine D4 receptor by liquid scintillation counting.

In assay [1] the target is T2, 5-hydroxytryptamine receptor 1A (Homo sapiens, UniProt P08908).
T2 sequence (P08908 whole entry): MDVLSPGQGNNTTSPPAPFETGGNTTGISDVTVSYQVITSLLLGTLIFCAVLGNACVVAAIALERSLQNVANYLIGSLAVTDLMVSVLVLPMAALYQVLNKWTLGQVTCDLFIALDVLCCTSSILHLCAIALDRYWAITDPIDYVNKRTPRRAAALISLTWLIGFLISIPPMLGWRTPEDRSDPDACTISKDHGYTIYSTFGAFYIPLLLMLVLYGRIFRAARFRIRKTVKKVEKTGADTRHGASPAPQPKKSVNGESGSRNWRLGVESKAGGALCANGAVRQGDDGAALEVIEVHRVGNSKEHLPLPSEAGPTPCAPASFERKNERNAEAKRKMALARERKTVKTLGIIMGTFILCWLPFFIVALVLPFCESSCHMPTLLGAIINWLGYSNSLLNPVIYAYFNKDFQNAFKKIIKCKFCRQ
The assay is described as follows: Displacement of [3H]8-OH-DPAT from human 5HT1A receptor by liquid scintillation counting.

Assay [2] has as its target 5-hydroxytryptamine receptor 2A (Homo sapiens, UniProt P28223). Briefly: Displacement of [3H]DOI from human 5HT2A receptor after 1 hr by liquid scintillation counting.
For assay [3], the target named is T3, 5-hydroxytryptamine receptor 2C (Rattus norvegicus, UniProt P08909).
T3 sequence (P08909 whole entry): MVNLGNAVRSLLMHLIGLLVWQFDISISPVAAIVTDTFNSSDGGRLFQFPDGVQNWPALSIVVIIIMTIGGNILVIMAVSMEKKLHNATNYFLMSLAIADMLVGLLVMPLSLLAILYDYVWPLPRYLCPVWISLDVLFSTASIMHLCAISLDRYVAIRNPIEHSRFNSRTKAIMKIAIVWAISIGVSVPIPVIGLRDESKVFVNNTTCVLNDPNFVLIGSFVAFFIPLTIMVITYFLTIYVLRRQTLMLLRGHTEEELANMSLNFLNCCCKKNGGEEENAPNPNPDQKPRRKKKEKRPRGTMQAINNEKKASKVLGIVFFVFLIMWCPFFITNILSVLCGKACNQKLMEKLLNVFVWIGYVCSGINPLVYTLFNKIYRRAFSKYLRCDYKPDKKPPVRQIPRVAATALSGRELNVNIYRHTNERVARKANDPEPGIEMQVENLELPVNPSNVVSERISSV
Briefly: Displacement of [3H]mesulergine from rat 5HT2C receptor by liquid scintillation counting.

The target in a further assay is Histamine H1 receptor (Homo sapiens, UniProt P35367).
Histamine H1 receptor, sequence (P35367 whole entry): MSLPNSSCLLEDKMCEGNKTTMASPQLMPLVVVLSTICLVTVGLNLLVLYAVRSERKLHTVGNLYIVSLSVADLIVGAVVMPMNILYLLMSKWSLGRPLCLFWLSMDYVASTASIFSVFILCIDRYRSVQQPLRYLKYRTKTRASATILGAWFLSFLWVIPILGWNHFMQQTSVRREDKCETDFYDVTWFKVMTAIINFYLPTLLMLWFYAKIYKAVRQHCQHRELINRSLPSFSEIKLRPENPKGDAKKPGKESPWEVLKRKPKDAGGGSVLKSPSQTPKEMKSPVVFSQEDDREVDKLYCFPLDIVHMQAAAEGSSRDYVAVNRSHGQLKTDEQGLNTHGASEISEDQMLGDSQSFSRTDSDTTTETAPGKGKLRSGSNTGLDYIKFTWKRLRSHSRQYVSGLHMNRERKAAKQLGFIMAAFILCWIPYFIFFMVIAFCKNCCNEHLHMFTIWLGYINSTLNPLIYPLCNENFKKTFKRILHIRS
Assay [4] concerns the target T4, Alpha-2C adrenergic receptor (Homo sapiens, UniProt P18825).
T4 sequence (P18825 whole entry): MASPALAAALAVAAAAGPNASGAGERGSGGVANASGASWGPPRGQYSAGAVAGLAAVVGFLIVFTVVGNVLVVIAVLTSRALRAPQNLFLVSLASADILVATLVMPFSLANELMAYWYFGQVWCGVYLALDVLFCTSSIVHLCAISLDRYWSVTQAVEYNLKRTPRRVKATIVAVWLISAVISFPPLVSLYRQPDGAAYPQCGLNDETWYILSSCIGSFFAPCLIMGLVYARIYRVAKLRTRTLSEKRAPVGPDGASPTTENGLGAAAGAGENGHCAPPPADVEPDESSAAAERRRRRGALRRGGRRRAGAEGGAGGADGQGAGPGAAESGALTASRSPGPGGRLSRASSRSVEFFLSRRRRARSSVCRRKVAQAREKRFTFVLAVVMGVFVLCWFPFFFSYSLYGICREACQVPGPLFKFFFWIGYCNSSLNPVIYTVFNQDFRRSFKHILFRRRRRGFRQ
Briefly: Displacement of [3H]clonidine from human Alpha-2C receptor by liquid scintillation counting.

Bounds are passed on as bounds.

5-hydroxytryptamine receptor 2A, sequence (P28223 whole entry): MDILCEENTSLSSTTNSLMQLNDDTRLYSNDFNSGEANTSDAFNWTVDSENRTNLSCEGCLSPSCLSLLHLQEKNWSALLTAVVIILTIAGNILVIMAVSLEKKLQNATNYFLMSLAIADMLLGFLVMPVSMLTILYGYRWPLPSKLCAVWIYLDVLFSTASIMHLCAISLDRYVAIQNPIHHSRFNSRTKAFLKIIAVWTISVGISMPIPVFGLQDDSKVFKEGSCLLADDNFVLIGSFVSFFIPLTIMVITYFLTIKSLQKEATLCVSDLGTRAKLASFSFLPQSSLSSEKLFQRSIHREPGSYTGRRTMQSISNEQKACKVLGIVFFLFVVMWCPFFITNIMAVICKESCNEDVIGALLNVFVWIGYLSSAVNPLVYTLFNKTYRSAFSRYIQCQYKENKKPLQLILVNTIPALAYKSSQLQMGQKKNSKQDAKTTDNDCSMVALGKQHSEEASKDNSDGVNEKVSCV
D(3) dopamine receptor, sequence (P35462 whole entry): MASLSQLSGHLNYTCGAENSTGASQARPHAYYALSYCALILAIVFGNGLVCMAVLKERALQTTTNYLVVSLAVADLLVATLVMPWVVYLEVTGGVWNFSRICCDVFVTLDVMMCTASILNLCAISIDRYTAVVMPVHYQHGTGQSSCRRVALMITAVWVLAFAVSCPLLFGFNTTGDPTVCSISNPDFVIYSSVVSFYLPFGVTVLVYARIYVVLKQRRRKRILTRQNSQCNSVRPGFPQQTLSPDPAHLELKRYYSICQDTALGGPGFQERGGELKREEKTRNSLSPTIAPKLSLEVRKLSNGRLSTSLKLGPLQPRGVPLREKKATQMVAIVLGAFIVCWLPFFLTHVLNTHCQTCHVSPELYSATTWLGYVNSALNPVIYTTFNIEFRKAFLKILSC
D(2) dopamine receptor, sequence (P14416 whole entry): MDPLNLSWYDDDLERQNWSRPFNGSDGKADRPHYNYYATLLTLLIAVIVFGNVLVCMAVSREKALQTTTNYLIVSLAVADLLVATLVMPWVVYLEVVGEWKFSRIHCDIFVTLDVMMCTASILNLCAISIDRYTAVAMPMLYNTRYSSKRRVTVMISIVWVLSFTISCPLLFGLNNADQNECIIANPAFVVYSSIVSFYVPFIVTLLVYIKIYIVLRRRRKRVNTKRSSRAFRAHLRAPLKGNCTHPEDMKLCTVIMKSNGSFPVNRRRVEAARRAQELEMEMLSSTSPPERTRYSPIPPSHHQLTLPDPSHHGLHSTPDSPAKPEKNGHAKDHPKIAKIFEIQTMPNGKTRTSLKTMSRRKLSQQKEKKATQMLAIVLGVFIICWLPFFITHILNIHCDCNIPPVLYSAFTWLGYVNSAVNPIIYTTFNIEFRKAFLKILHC
Description for Histamine H1 receptor: Displacement of [3H]pyrilamine from human H1 receptor by liquid scintillation counting

For `OC1(c2ccc(Cl)cc2)CCN(CCCOc2ccc(F)cc2)CC1`, the Ki at D(2) dopamine receptor is 0.0053 µM; on D(3) dopamine receptor it was 0.182 µM.
`[O-][S+](CCCN1CCC(c2ccc(Cl)cc2)CC1)c1ccc(F)cc1` (stereo not drawn): the Ki at D(2) dopamine receptor was 0.998 µM; at D(3) dopamine receptor, 0.243 µM; at D(4) dopamine receptor, 0.035 µM; in assay [1], 0.613 µM; in assay [2], 0.222 µM; in assay [3], over 10 µM.
As to `Fc1ccc(CCCCN2CCN(c3ccc(Cl)cc3)CC2)cc1`, the Ki is 0.261 µM on D(3) dopamine receptor, 0.0078 µM at D(4) dopamine receptor, 0.112 µM in assay [1] and 0.081 µM in assay [2].
`Fc1ccc(SCCCN2CCN(c3ccccn3)CC2)cc1`: the results for the inhibition constant (Ki) (at Histamine H1 receptor; in assay [4]) were 0.212 µM and 0.0451 µM, respectively.
Regarding `Fc1ccc(OCCCN2CCN(c3ccccn3)CC2)cc1`, the Ki on Histamine H1 receptor turned out to be 0.262 µM.
As for `Fc1ccc(SCCCN2CCC(c3ccc(Cl)cc3)CC2)cc1`, the inhibition constant (Ki) on D(2) dopamine receptor was 0.185 µM; on D(3) dopamine receptor, 0.13 µM; on D(4) dopamine receptor, 0.039 µM; in assay [1], 0.454 µM; in assay [2], 0.112 µM; in assay [3] it was over 10 µM.
Turning to `Fc1ccc(OCCCN2CCN(c3ccc(Cl)cc3)CC2)cc1`, the inhibition constant (Ki) at D(2) dopamine receptor was 0.39 µM; on D(3) dopamine receptor, 0.885 µM; on D(4) dopamine receptor, 0.0069 µM; in assay [1] it was 0.08 µM; in assay [2] it was 0.06 µM.
Taken in the same sequence, the figures for `Fc1ccc(SCCCN2CCN(c3ccc(Cl)cc3)CC2)cc1` were 0.211 µM, 0.422 µM, 0.0087 µM, 0.166 µM and 0.053 µM.
For the compound `Fc1ccc(SCCCN2CCN(c3ncccn3)CC2)cc1`, the inhibition constant Ki at D(2) dopamine receptor was 0.424 µM; at D(3) dopamine receptor it was 0.068 µM; on D(4) dopamine receptor, 0.021 µM; in assay [1] it was 0.0931 µM; in assay [2] it was 0.027 µM; in assay [3], 8.83 µM.
In the case of `Fc1ccc(OCCCN2CCC(c3ccc(Cl)cc3)CC2)cc1`, the inhibition constant Ki at D(2) dopamine receptor was 0.041 µM; at D(3) dopamine receptor, 0.696 µM; at D(4) dopamine receptor, 0.0095 µM; in assay [1], 0.169 µM; in assay [2], 0.121 µM; in assay [3] it was over 10 µM.
Take `Clc1ccc(N2CCN(CCCOc3ccccc3)CC2)cc1`: the inhibition constant Ki at D(2) dopamine receptor was determined as 0.447 µM; at D(3) dopamine receptor, 0.726 µM; at D(4) dopamine receptor it was 0.0056 µM; in assay [1], 0.154 µM.
In assay [4], `O=C(CCCN1CCN(c2ncccn2)CC1)c1ccc(F)cc1` showed an inhibition constant Ki of 0.08 µM.
In the case of `Fc1ccc(CCCCN2CCN(c3ccccn3)CC2)cc1`, the Ki is 0.167 µM at Histamine H1 receptor and 0.308 µM in assay [4].
Consider `c1ccc(OCCCN2CCN(c3ccccc3)CC2)cc1`, for which the inhibition constant (Ki) on D(2) dopamine receptor stood at 0.119 µM; on D(3) dopamine receptor, 0.0793 µM; on D(4) dopamine receptor, 0.0045 µM; in assay [1], 0.025 µM; in assay [2], 0.046 µM; on Histamine H1 receptor it was 0.0679 µM.
On to `Fc1ccc(OCCCN2CCN(c3ccccc3)CC2)cc1`, for which the Ki at D(2) dopamine receptor was determined as 0.037 µM; at D(3) dopamine receptor it was 0.207 µM; at D(4) dopamine receptor it was 0.0074 µM; in assay [1], 0.024 µM; in assay [2] it was 0.0576 µM; on Histamine H1 receptor, 0.0629 µM.
As to `Fc1ccc(SCCCN2CCN(c3ccc(C(F)(F)F)cc3)CC2)cc1`, the Ki on D(2) dopamine receptor turned out to be 4.75 µM; at D(3) dopamine receptor it was 0.544 µM; on D(4) dopamine receptor, 0.089 µM; in assay [1], 1.08 µM; in assay [2], 1.13 µM.
As for `Fc1ccc(OCCCN2CCN(c3ncccn3)CC2)cc1`, the inhibition constant (Ki) on D(2) dopamine receptor was 0.636 µM; on D(3) dopamine receptor it was 0.778 µM; on D(4) dopamine receptor it was 0.0042 µM; in assay [1] it was 0.023 µM; in assay [2], 0.023 µM; in assay [3], over 10 µM.
